Assay results: US10189791B2, “Pyridyl analogs of 1-(2-cyano-3,12-dioxooleana-1,9(11)dien-28-oyl) imidazole” (Trustees of Dartmouth College, priority 2014, dated 2019)
Read-outs that look alike come from different tables or passages of the source.

What was measured:
[1] = Tissue distribution after single gavage in C57BL/6 mice (LC-MS); assay type: in vivo; details: for bioavailability / drug levels in organs (in words): compared with CDDO-Im 1; for Compound Concentration Mean ± SE, Kidney / Compound Concentration Mean ± SE, Liver / Compound Concentration Mean ± SE, Lungs / Compound Concentration Mean ± SE, Pancreas / Compound Concentration Mean ± SE, Plasma / Compound Concentration Mean ± SE, Whole Blood: six hours after single gavage with 1 μmole
Procedure: To determine concentrations of the CDDO-Im analogs in various organs, an in vivo evaluation was conducted in C57BL/6 mice. Six hours after a single gavage with 1 μmole of compound, the mice were sacrificed and the tissues were collected.

[2] = tested on: RA W264.7 macrophage-like cells; experiment: Inhibition of IFNγ-stimulated nitric oxide release (Griess reaction); assay type: cell-based; details: 10 ng/ml IFNγ, 24 hour exposure, read-out: IC50 (nM) Mean ± SE, NO production
Procedure: Because oxidative and inflammatory stress contribute to carcinogenesis (Albini & Sporn (2007) Nature Rev. Cancer 7:139-147), it was determined whether the pyridine analogues could block de novo synthesis of inducible nitric oxide synthase (iNOS), a critical enzyme involved in the inflammatory response (Kroncke, et al. (1998) Clin. Exp. Immunol. 113:147-156; Zamora, et al. (2000) Mol. Med. 6:347-373). Nitric oxide release was determined in RA W264.7 macrophage-like cells, after stimulation with 10 ng/ml interferon-γ (IFNγ) and a 24 hour-exposure to each compound at 0.625, 1.3, 2.5, 5, 10 and 20 nM. NO release was measured by Griess reaction and compared to CDDO-Im, which is a potent suppressor of iNOS (Place, et al. (2003) Clin. Cancer Res. […]:2798-2806).

[3] = Stability in human plasma at 37° C. (LC-MS); assay type: in vitro ADME; details: for percent of starting material remaining in plasma: after a 1-hour incubation; for stability in human plasma (in words): up to 6 hours
Procedure: Since CDDO-Im is not stable in human plasma, the stability of the CDDO-Im analogs was determined. Compounds were incubated in human plasma at 37° C. for up to 6 hours. The compounds were extracted with acetonitrile at six different time points (0, 0.5, 1, 2, 4 and 6 hours), centrifuged, and the percent of starting material remaining in the supernatant was measured by liquid chromatography-mass spectrometry (LC-MS). […] The concentrations then decreased gradually over 6 hours. […] Unexpectedly, the CDDO-Im analogs are metabolized differently from CCDO-Im, as no traces of CDDO were detected with any of the other compounds at any time point. Instead, an oxidized derivative was detected on the chromatogram, in the form of an adduct on the molecule of +16 in MW (N-oxide).

HO-1 = experiment: Induction of HO-1 mRNA in mouse liver, kidney and lung (real-time PCR); assay type: in vivo, mice; details: for HO-1 level relative to CDDO-Im / HO-1 mRNA fold induction compared to the vehicle control: liver; for HO-1 mRNA fold induction compared to the vehicle control: six hours after gavage with 1 μmole; for HO-1 induction (in words): kidney
Excerpt: (§1) FIG. 2A and FIG. 2B show the induction of cytoprotective enzyme expression in mouse liver, kidney and lung. CB57BL/6 mice were gavaged with 1 μmole of each triterpenoid. Six hours later, organs were harvested, RNA was extracted, and mRNA levels for HO-1 (FIG. 2A) and NQO1 (FIG. 2B) were quantified by real-time PCR analysis. Results are presented as the fold induction for each compound compared to the vehicle (DMSO) control. Data are presented as mean±SE of six mice per group.
Synthetic triterpenoids such as CDDO-Im strongly activate the Nrf2/ARE pathway; Nrf2 is a transcription factor that regulates numerous cytoprotective and anti-inflammatory genes (Liby, et al. (2005) Cancer Res. 65:4789-98; Yates, et al. (2007) Mol. Cancer Therapeut. 6:154-62). Therefore, the ability of the new pyridine compounds to induce transcription of the Nrf2 target genes HO-1 and NQ01 in vivo was assessed. […] In the liver, CDDO-3P-Im and CDDO-2P-Im induced high levels of HO-1, which were about 3 times more elevated than with CDDO-Im (13.4- and 15.2-fold, respectively vs. 4.9-fold for CDDO-Im). […] The results obtained in lungs were, on the other hand, unexpected.

U937 leukemia cell line = experiment: U937 monocytic differentiation assay (CD11b surface marker, flow cytometry); assay type: cell-based; details: for activity to induce differentiation of U937 cells (in words): 4 days
Procedure: CDDO-Im 1 is a potent inducer of differentiation in U937 cells (Place, et al. (2003) Clin. Cancer Res. 9:2798-2806). Therefore, the activity of the CDDO-Im analogs was evaluated using the U937 leukemia cell line. CD11b (also known as Mac-1α or CR3 complement receptor) was used as a surface marker of monocytic differentiation, and its expression was measured by flow cytometry after 4 days of treatment with CDDO-Phenyl-Im 2, CDDO-3P-Im 3, CDDO-2P-Im 4, CDDO-4P-Im 5, CDDO-Im 1 (as positive control) or vehicle (DMSO). […] Indeed, the highest level of differentiation was obtained using 100 nM of CDDO-2P-Im (approximately a 4-fold induction of CD11b).

U937 cells = experiment: Apoptosis in U937 cells (annexin V staining); assay type: cell-based; details: U937 cells treated for 48 hours
NQO1 = experiment: Induction of NQO1 mRNA in mouse liver, kidney and lung (real-time PCR); assay type: in vivo, mice
Excerpt: as §1
Because HO-1 is regulated by transcription factors in addition to Nrf2 (Alam, et al. (1999) J. Biol. Chem. 274:26071-8; Kensler, et al. (2007) Ann. Rev. Pharmacol. Toxicol. 47:89-116), induction of the prototypical Nrf2 target gene NQO1 was also examined.

[4] = six hours after gavage with 1 μmole
[5] = six hours after gavage with 1 μmole, read-out: concentration in the pancreas
[6] = 30 nM, compared with CDDO-Im and CDDO-3P-Im
[7] = 30 nM, 4 days of treatment, U937 cells

| bioavailability / drug levels in organs (in words) [1] | concentration in the liver [1, 4] [nM] | concentration at 6 h [1, 5] [nM] | Compound Concentration Mean ± SE, Kidney [1] [µmol/kg] | Compound Concentration Mean ± SE, Liver [1] [µmol/kg] | Compound Concentration Mean ± SE, Lungs [1] [µmol/kg] | Compound Concentration Mean ± SE, Pancreas [1] [µmol/kg] | Compound Concentration Mean ± SE, Plasma [1] [µmol/kg] | Compound Concentration Mean ± SE, Whole Blood [1] [µmol/kg] | IC50 [2] [nM] | percent of starting material remaining in plasma ([3]; 37° C.) | stability in human plasma (in words) ([3]; 37° C.) | SMILES | drug levels in the lungs [1, 4] | HO-1 level relative to CDDO-Im (HO-1; six hours after gavage) | HO-1 mRNA fold induction compared to the vehicle control (HO-1) [fold] | activity to induce differentiation of U937 cells (in words) (U937 leukemia cell line; [6]) | activity to induce differentiation of U937 cells (in words) (U937 leukemia cell line; 100 nM) | annexin V staining, a marker of early apoptosis (U937 cells) | induction of CD11b expression compared to the DMSO-treated cells (U937 leukemia cell line; [7]) [fold] | cell death in the differentiation assay (U937 leukemia cell line; 100 nM) | further results |
| --- | --- | --- | --- | --- | --- | --- | --- | --- | --- | --- | --- | --- | --- | --- | --- | --- | --- | --- | --- | --- | --- |
| – | – | – | 0.24 ± 0.08 | 1.7 ± 0.32 | 0.19 ± 0.05 | 0.31 ± 0.09 | 0.06 ± 0.02 | 0.03 ± 0.01 | – | – | rapidly metabolized | CC1(C)CCC2(C(=O)n3ccnc3)CCC3(C)C(C(=O)C=C4C5(C)C=C(C#N)C(=O)C(C)(C)C5CCC43C)C2C1 (stereo not drawn) [CDDO-Im 1, 1-(2-cyano-3,12-dioxooleana-1,9(11)-dien-28-oyl) imidazole, reference compound] | – | – | – | – | – | increased annexin V staining | ~3 | induced cell death | concentration at 6 h ([1]; C57BL/6, mouse, liver, oral, six hours after gavage with 1 μmole, read-out: concentration in the liver): 1700 nM; concentration at 6 h ([1]; C57BL/6, mouse, lung, oral, six hours after gavage with 1 μmole, read-out: drug levels in the lungs): 200 nM; concentration at 6 h ([1]; C57BL/6, mouse, pancreas, oral, six hours after gavage with 1 μmole, read-out: concentration in the pancreas): ~300 nM; rank of NQO1 mRNA induction (in words) (NQO1; liver and kidney): the most potent compound; IC50 ([2]; Mus musculus, RAW264.7): 2 nM; transformation product in human plasma (in words) ([3]; LC-MS, all time points): essentially converted to its parent molecule; percent of compound lost in human plasma ([3]; within 30 minutes, 37° C.): more than 88%; percent of compound lost in human plasma ([3]; within the next 5 hours (6 hour incubation), 37° C.): 98% |
| better than for CDDO-Im 1 | 12000 to 15000 | 2000 | 5.79 ± 0.25 | 12.2 ± 1.27 | 1.28 ± 0.17 | 1.97 ± 0.19 | 0.12 ± 0.01 | 0.35 ± 0.03 | 14.7 | – | more stable than CDDO-Im | CC1(C)CCC2(C(=O)n3cnc(-c4ccccc4)c3)CCC3(C)C(C(=O)C=C4C5(C)C=C(C#N)C(=O)C(C)(C)C5CCC43C)C2C1 (stereo not drawn) [CDDO-Phenyl-Im 2] | – | – | – | less active | – | – | – | – | concentration in kidneys [1, 4]: 5800 nM; NQO1 mRNA induction (in words) (NQO1; liver, compared with CDDO-Im): markedly less potent than CDDO-Im; HO-1 induction (in words) (HO-1): markedly less potent |

Further lines, the compound ahead of its results:

| SMILES | bioavailability / drug levels in organs (in words) [1] | concentration in the liver [1, 4] [nM] | concentration at 6 h [1, 5] [nM] | Compound Concentration Mean ± SE, Kidney [1] [µmol/kg] | Compound Concentration Mean ± SE, Liver [1] [µmol/kg] | Compound Concentration Mean ± SE, Lungs [1] [µmol/kg] | Compound Concentration Mean ± SE, Pancreas [1] [µmol/kg] | Compound Concentration Mean ± SE, Plasma [1] [µmol/kg] | Compound Concentration Mean ± SE, Whole Blood [1] [µmol/kg] | IC50 [2] [nM] | percent of starting material remaining in plasma ([3]; 37° C.) | stability in human plasma (in words) ([3]; 37° C.) | drug levels in the lungs [1, 4] | HO-1 level relative to CDDO-Im (HO-1; six hours after gavage) | HO-1 mRNA fold induction compared to the vehicle control (HO-1) [fold] | activity to induce differentiation of U937 cells (in words) (U937 leukemia cell line; [6]) | activity to induce differentiation of U937 cells (in words) (U937 leukemia cell line; 100 nM) | annexin V staining, a marker of early apoptosis (U937 cells) | induction of CD11b expression compared to the DMSO-treated cells (U937 leukemia cell line; [7]) [fold] | cell death in the differentiation assay (U937 leukemia cell line; 100 nM) | further results |
| --- | --- | --- | --- | --- | --- | --- | --- | --- | --- | --- | --- | --- | --- | --- | --- | --- | --- | --- | --- | --- | --- |
| CC1(C)CCC2(C(=O)n3cnc(-c4ccccn4)c3)CCC3(C)C(C(=O)C=C4C5(C)C=C(C#N)C(=O)C(C)(C)C5CCC43C)C2C1 (stereo not drawn) [CDDO-2P-Im 4] | better than for CDDO-Im 1 | 12000 to 15000 | 3500 | 3.70 ± 0.55 | 14.9 ± 2.58 | 2.63 ± 0.41 | 3.55 ± 0.39 | 0.52 ± 0.02 | 0.53 ± 0.02 | 5.8 ± 1.1 | more than 85% | the most stable analog | greater than 2.5 μM | about 3 times | 15.2 | less active | enhanced the activity | – | – | – | percent left in plasma ([3]; after 4 hours, 37° C.): more than 50%; induction of CD11b (U937 leukemia cell line; 100 nM, 4 days of treatment, U937 cells): ~4 fold |
| CC1(C)CCC2(C(=O)n3cnc(-c4cccnc4)c3)CCC3(C)C(C(=O)C=C4C5(C)C=C(C#N)C(=O)C(C)(C)C5CCC43C)C2C1 (stereo not drawn) [CDDO-3P-Im 3] | better than for CDDO-Im 1 | – | 2500 | 1.47 ± 0.24 | 5.9 ± 0.57 | 2.49 ± 0.44 | 2.52 ± 0.24 | 0.15 ± 0.04 | 0.16 ± 0.02 | 4.3 | – | more stable than CDDO-Im | greater than 2.5 μM | about 3 times | 13.4 | – | – | increased annexin V staining | ~3 | induced cell death | – |
| CC1(C)CCC2(C(=O)n3cnc(-c4ccncc4)c3)CCC3(C)C(C(=O)C=C4C5(C)C=C(C#N)C(=O)C(C)(C)C5CCC43C)C2C1 (stereo not drawn) [CDDO-4P-Im 5] | – | – | – | 0.35 ± 0.06 | 2.8 ± 0.47 | 0.17 ± 0.05 | 0.30 ± 0.04 | 0.03 ± 0.01 | 0.04 ± 0.1 | 9 ± 0.6 | 42% | more stable than CDDO-Im | – | – | – | less active | enhanced the activity | – | – | – | HO-1 induction (in words) (HO-1): less potent than CDDO-Im; HO-1 transcript level relative to CDDO-Im or any of the other compounds (HO-1; lungs, six hours after gavage): about 3 times |
